Patent US11597727B2 (THE REGENTS OF THE UNIVERSITY OF CALIFORNIA, priority 2018, dated 2023)

The compounds below were run against integrin α2β1 (Homo sapiens, UniProt P05556+P17301) (assay: HT 1080 cell adhesion assay on rat tail collagen I). Details: HT1080 (human fibrosarcoma) cells on rat tail collagen I, absorbance at 595 nm, triplicate; read-out: IC50s from HT 1080 Cell adhesion assay.
Type: cell-based
Design: HT1080 (human fibrosarcoma) cells (or human airway smooth muscle cells) were detached and resuspended in serum-free DMEM; endogenous in cells; host or cells: HT1080 human fibrosarcoma cells
Protocol: Cell adhesion Assay: Ninety-six-well flat-bottomed tissue culture plates were coated with rat tail collagen I for 1 hour at 37° C. After incubation, wells were blocked with 1% BSA at 37° C. for 1 hour. Control wells were filled with 1% BSA. HT1080 (human fibrosarcoma) cells (or human airway smooth muscle cells) were detached and resuspended in serum-free DMEM. Cells were incubated with anti-integrin alpha2 antibody control or 10-fold dilutions of each compound with a starting concentration of 10 uM for 15 minutes at 4° C. before plating. The plates were centrifuged at 10 g for 5 minutes before incubation for 1 hour at 37° C. in humidified 5% CO2. Nonadherent cells were removed by centrifugation (top side down) at 10 g for 5 minutes. Attached cells were stained with 0.5% crystal violet, and the wells were washed with PBS. The relative number of cells in each well was evaluated after solubilization in 40 μl of 2% Triton X-100 by measuring absorbance at 595 nm in a microplate reader. All determinations were carried out in triplicate.

Chain of integrin α2β1 (P17301 30-1181): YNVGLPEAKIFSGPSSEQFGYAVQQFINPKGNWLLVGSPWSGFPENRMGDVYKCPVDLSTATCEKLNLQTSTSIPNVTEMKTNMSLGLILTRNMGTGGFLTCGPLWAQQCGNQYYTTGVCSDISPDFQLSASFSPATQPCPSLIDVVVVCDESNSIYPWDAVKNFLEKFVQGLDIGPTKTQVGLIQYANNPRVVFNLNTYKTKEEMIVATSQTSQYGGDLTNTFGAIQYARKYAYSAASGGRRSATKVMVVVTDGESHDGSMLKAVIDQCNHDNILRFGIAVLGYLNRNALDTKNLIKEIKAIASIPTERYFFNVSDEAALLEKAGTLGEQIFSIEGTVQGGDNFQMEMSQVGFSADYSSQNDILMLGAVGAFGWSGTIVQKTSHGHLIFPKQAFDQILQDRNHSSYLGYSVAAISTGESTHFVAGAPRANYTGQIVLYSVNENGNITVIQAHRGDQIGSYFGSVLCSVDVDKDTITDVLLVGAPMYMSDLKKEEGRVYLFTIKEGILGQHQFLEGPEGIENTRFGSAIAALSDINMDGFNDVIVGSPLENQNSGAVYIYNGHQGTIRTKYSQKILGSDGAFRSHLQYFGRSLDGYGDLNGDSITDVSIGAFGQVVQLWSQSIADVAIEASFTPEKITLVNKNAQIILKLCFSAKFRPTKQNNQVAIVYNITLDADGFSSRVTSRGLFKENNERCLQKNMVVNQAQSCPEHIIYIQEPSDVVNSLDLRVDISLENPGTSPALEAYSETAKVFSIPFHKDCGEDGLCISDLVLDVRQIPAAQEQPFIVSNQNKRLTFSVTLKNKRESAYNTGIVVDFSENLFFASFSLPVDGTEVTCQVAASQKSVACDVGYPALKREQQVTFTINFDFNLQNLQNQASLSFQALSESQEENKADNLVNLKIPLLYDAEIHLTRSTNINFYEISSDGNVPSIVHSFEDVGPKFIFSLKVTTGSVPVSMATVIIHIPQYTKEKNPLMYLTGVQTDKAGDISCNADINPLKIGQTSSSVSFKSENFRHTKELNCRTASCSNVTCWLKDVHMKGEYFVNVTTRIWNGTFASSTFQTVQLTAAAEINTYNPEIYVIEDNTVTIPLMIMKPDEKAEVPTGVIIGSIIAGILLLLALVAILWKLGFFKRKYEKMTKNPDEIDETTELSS
Chain of integrin α2β1 (P05556 21-798): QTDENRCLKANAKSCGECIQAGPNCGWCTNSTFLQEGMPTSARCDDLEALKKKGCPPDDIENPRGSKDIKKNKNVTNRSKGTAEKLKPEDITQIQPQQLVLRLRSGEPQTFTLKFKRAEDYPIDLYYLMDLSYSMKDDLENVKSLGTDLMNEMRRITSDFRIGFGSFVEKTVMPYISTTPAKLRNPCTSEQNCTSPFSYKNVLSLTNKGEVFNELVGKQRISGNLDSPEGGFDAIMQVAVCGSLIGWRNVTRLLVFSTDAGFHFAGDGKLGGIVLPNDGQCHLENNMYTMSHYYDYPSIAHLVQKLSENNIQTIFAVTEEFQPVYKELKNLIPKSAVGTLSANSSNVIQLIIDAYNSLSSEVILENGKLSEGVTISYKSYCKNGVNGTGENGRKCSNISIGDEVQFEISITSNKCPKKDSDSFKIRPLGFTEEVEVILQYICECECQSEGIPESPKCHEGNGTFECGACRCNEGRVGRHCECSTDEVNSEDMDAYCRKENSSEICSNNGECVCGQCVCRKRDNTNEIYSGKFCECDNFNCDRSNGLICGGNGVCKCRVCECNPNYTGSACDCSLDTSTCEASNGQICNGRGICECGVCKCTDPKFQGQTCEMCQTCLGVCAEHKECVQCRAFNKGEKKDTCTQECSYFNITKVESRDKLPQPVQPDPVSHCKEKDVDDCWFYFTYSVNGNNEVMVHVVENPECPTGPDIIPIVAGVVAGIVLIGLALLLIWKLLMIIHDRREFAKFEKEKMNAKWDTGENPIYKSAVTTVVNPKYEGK

Structure (SMILES) | IC50 [µM]
O=C(NC[C@H](NC(=O)c1c(Cl)cccc1Cl)C(=O)O)NC1CCc2ccccc2C1 (stereo partly drawn) [A2-126, (2S)-2-(2,6-dichlorobenzamido)-3-(3-(1,2,3,4-tetrahydronaphthalen-2-yl)ureido)propanoic acid] | < 10
COc1cc(C)c(C(=O)N[C@@H](CNC(=O)NCc2ccccc2)C(=O)O)c(C)c1 [A2-60, (S)-3-(3-benzylureido)-2-(4-methoxy-2,6-dimethylbenzamido)propanoic acid] | 10 to 100
O=C(NCc1ccccc1)NC[C@H](NC(=O)c1c(C(F)(F)F)cccc1C(F)(F)F)C(=O)O [A2-27, (S)-3-(3-benzylureido)-2-(2,6-bis(trifluoromethyl)benzamido)propanoic acid] | 10 to 100
O=C(NCc1ccccc1)NC[C@H](NC(=O)c1c(Cl)cncc1Cl)C(=O)O [A2-29, (S)-3-(3-benzylureido)-2-(3,5-dichloroisonicotinamido)propanoic acid] | < 10
C[C@H](NC(=O)NC[C@H](NC(=O)c1c(Cl)cccc1Cl)C(=O)O)c1ccccc1 [KZ-1-13, (S)-2-(2,6-dichlorobenzamido)-3-(3-((S)-1-phenylethyl)ureido)propanoic acid] | > 100
COc1ccccc1CNC(=O)NC[C@H](NC(=O)c1c(Cl)cccc1Cl)C(=O)O [KZ-1-14, (S)-2-(2,6-dichlorobenzamido)-3-(3-(2-methoxybenzyl)ureido)propanoic acid] | 10 to 100
Nc1ccc(CNC(=O)NC[C@H](NC(=O)c2c(Cl)cccc2Cl)C(=O)O)cc1 [KZ-1-37, (S)-3-(3-(4-aminobenzyl)ureido)-2-(2,6-dichlorobenzamido)propanoic acid] | > 100
O=C(NC[C@H](NC(=O)c1c(Cl)cccc1Cl)C(=O)O)NC(c1ccccc1)c1ccccc1 [A2-127, (S)-3-(3-benzhydrylureido)-2-(2,6-dichlorobenzamido)propanoic acid] | 10 to 100

The remaining lines, values ahead:

IC50 [µM] | Structure (SMILES)
10 to 100 | O=C(NC[C@H](NC(=O)c1c(Cl)cccc1Cl)C(=O)O)NC12CCC3CC(CC(C3)C1)C2 [A2-181, (25)-2-(2,6-dichlorobenzamido)-3-(3-(tricyclo[4.3.1.13,8]undecan-3-yl)ureido)propanoic acid]
10 to 100 | O=C(NCCC12CC3CC(CC(C3)C1)C2)NC[C@H](NC(=O)c1c(Cl)cccc1Cl)C(=O)O [A2-154, (S)-3-(3-(2-(adamantan-1-yl)ethyl)ureido)-2-(2,6-dichlorobenzamido)propanoic acid]
10 to 100 | O=C(NC[C@H](NC(=O)c1c(Cl)cccc1Cl)C(=O)O)NC12CC3CC(C1)CC(C(F)(F)F)(C3)C2 [A2-131, (S)-2-(2,6-dichlorobenzamido)-3-(3-(3-(trifluoromethyl)adamantan-1-yl)ureido)propanoic acid]
10 to 100 | O=C(NC[C@H](NC(=O)c1c(Cl)cccc1Cl)C(=O)O)NCC12CC3CC(CC(O)(C3)C1)C2 [A2-153]
10 to 100 | O=C(NCC1CC2(CCC2)C1)NC[C@H](NC(=O)c1c(Cl)cccc1Cl)C(=O)O [A2-178, (S)-2-(2,6-dichlorobenzamido)-3-(3-(spiro[3.3]heptan-2-ylmethyl)ureido)propanoic acid]
10 to 100 | CC12CC3CC(C1)CC(NC(=O)NC[C@H](NC(=O)c1c(Cl)cccc1Cl)C(=O)O)(C3)C2 [A2-157, (S)-2-(2,6-dichlorobenzamido)-3-(3-(3-methyladamantan-1-yl)ureido)propanoic acid]
10 to 100 | CC(NC(=O)NCC(NC(=O)c1c(Cl)cccc1Cl)C(=O)O)C1CC2CCC1C2 [A2-176, (2S)-3-(3-(1-((1 S,4R)-bicyclo[2.2.1]heptan-2-yl)ethyl)ureido)-2-(2,6-dichlorobenzamido)propanoic acid]
10 to 100 | O=C(NCC1CC12CCCCC2)NC[C@H](NC(=O)c1c(Cl)cccc1Cl)C(=O)O (stereo partly drawn) [A2-177, (2S)-2-(2,6-dichlorobenzamido)-3-(3-(spiro[2.51]octan-1-ylmethyl)ureido)propanoic acid]
10 to 100 | Cc1ccccc1CNC(=O)NC[C@H](NC(=O)c1c(Cl)cccc1Cl)C(=O)O [KZ-1-39, (S)-2-(2,6-dichlorobenzamido)-3-(3-(2-methylbenzyl)ureido)propanoic acid]
